Test results published in ChEMBL document CHEMBL4651402, “Screening of ~5500 FDA-approved drugs and clinical candidates for anti-SARS-CoV-2 activity” (2021).

Tested on: SARS-CoV-2
Assay: microbe, parasite or virus in culture
Conditions: Severe acute respiratory syndrome coronavirus 2, Vero C1008, 48 h

| Compound | IC50 [µM] | IC50 (read-out: pIC50 (converted)) [µM] |
| --- | --- | --- |
| C[C@@H]1O[C@@H](O[C@H]2C[C@@H](O)[C@]3(CO)[C@H]4[C@H](O)C[C@]5(C)[C@@H](C6=CC(=O)OC6)CC[C@]5(O)[C@@H]4CC[C@]3(O)C2)[C@H](O)[C@H](O)[C@H]1O [OUABAIN] | > 20 | > 20 |
| CC(=O)N1C[C@H](O)C[C@H]1C(=O)O [OXACEPROL] | > 20 | > 20 |
| O=C(O)C(=O)O [OXALIC ACID] | > 20 | > 20 |
| O=C(O)CC(=O)C(=O)O [OXALOACETATE] | > 20 | > 20 |
| COc1ccc2c(c1)c(CC(=O)NO)c(C)n2C(=O)c1ccc(Cl)cc1 [OXAMETACIN] | > 20 | > 20 |
| CC(C)NCC1CCc2cc(CO)c([N+](=O)[O-])cc2N1 (centres undefined) [OXAMNIQUINE] | > 20 | > 20 |
| C[C@]12COC(=O)C[C@@H]1CC[C@@H]1[C@@H]2CC[C@@]2(C)[C@H]1CC[C@]2(C)O [OXANDROLONE] | > 20 | > 20 |
| O=C1Nc2ccc(Cl)cc2C(c2ccccc2)=NC1O (centres undefined) [OXAZEPAM] | > 20 | > 20 |
| NC(=O)N1c2ccccc2CC(=O)c2ccccc21 [OXCARBAZEPINE] | > 20 | > 20 |
| CNCC(O)c1ccc(O)cc1 (centres undefined) [OXEDRINE] | > 20 | > 20 |
| CCN(CC)CCOCCOC(=O)C(CC)(CC)c1ccccc1 [OXELADIN] | > 20 | > 20 |
| COC(=O)Nc1nc2cc([S+]([O-])c3ccccc3)ccc2[nH]1 (centres undefined) [OXFENDAZOLE] | > 20 | > 20 |
| CCCOc1ccc2[nH]c(NC(=O)OC)nc2c1 [OXIBENDAZOLE] | > 20 | > 20 |
| Clc1ccc(CO/N=C(\Cn2ccnc2)c2ccc(Cl)cc2Cl)c(Cl)c1 [OXICONAZOLE] | > 20 | > 20 |
| O=c1[nH]c2ccccc2n1C1CCN(CCOc2ccccc2)CC1 [OXIPEROMIDE] | > 20 | > 20 |
| Cc1[nH]cnc1CSCCNc1nc(=O)c(Cc2ccc3c(c2)OCO3)c[nH]1 [OXMETIDINE] | > 20 | > 20 |
| CCN(CC)CCc1nc(-c2ccccc2)no1 [OXOLAMINE] | > 20 | > 20 |
| CCn1cc(C(=O)O)c(=O)c2cc3c(cc21)OCO3 [OXOLINIC ACID] | > 20 | > 20 |
| O=C1CCCN1CC#CCN1CCCC1 [OXOTREMORINE] | > 20 | > 20 |
| C=CCOc1ccccc1OCC(O)CNC(C)C (centres undefined) [OXPRENOLOL] | > 20 | > 20 |
| O=C(O)CCCO [OXYBATE] | > 20 | > 20 |
| COc1ccc(C(=O)c2ccccc2)c(O)c1 [OXYBENZONE] | > 20 | > 20 |
| CCN(CC)CC#CCOC(=O)C(O)(c1ccccc1)C1CCCCC1 (centres undefined) [OXYBUTYNIN] | > 20 | > 20 |
| O=C(O)c1c(O)c(-c2ccccc2)nc2ccccc12 [OXYCINCHOPHEN] | > 20 | > 20 |
| O=C(Nc1cc(Cl)cc(Cl)c1O)c1c(O)c(Cl)cc(Cl)c1Cl [OXYCLOZANIDE] | > 20 | > 20 |
| COc1ccc2c3c1O[C@H]1C(=O)CC[C@@]4(O)[C@@H](C2)N(C)CC[C@]314 [OXYCODONE] | > 20 | > 20 |

| Compound | IC50 [µM] | IC50 (read-out: pIC50 (converted)) [µM] |
| --- | --- | --- |
| Cc1cc(C(C)(C)C)c(O)c(C)c1CC1=NCCN1 [OXYMETAZOLINE] | > 20 | > 20 |
| COc1cc2[nH]c(C)c(CCN3CCN(c4ccccc4)CC3)c2cc1OC [OXYPERTINE] | > 20 | > 20 |
| CCCCC1C(=O)N(c2ccccc2)N(c2ccc(O)cc2)C1=O (centres undefined) [OXYPHENBUTAZONE ANHYDROUS] | > 20 | > 20 |
| CC(=O)Oc1ccc(C2(c3ccc(OC(C)=O)cc3)C(=O)Nc3ccccc32)cc1 [OXYPHENISATIN ACETATE] | > 20 | > 20 |
| O=C1Nc2ccccc2C1(c1ccc(O)cc1)c1ccc(O)cc1 [OXYPHENISATINE] | > 20 | > 20 |
| CC[N+](C)(CC)CCOC(=O)C(O)(c1ccccc1)C1CCCCC1 (centres undefined) [OXYPHENONIUM] | > 20 | > 20 |
| Oc1nc(O)c2cn[nH]c2n1 [OXYPURINOL] | > 20 | > 20 |
| Oc1cccc2cccnc12 [OXYQUINOLINE] | > 20 | > 20 |
| CN(C)[C@@H]1C(O)=C(C(N)=O)C(=O)[C@@]2(O)C(O)=C3C(=O)c4c(O)cccc4[C@@](C)(O)[C@H]3[C@H](O)[C@@H]12 [OXYTETRACYCLINE] | > 20 | > 20 |
| O=C(O)/C=C/c1ccc(Cn2ccnc2)cc1 [OZAGREL] | > 20 | > 20 |
| CC(C)Oc1ccc(-c2nc(-c3cccc4c3CC[C@@H]4NCCO)no2)cc1C#N [OZANIMOD] | > 20 | > 20 |
| Cc1ccc(S(N)(=O)=O)cc1 [P-TOLUENESULFONAMIDE] | > 20 | > 20 |
| COc1cc2c(cc1-c1cc3cc4ccoc4cc3oc1=O)OCO2 [PACHYRRIZINE] | > 20 | > 20 |
| C1=N/C2=N/c3ccc(OCCN4CCCC4)c(c3)COC/C=C/COCc3cccc(c3)C(=C1)N2 [PACRITINIB] | > 20 | > 20 |
| COc1ccc(C(C)=O)c(O)c1 [PAEONOL] | > 20 | > 20 |
| CC(C)n1nc(-c2cccc(Cl)c2Cl)c(N)nc1=N [PALATRIGINE] | > 20 | > 20 |
| CC(=O)c1c(C)c2cnc(Nc3ccc(N4CCNCC4)cn3)nc2n(C2CCCC2)c1=O [PALBOCICLIB] | > 20 | > 20 |
| O=P(O)(NCCCl)NCCCl [PALIFOSFAMIDE] | > 20 | > 20 |
| CCCCCCCCCCCCCCCC(=O)NCCO [PALMIDROL] | > 20 | > 20 |
| CCCCCCCCCCCCCCCC(=O)O [PALMITIC ACID] | > 20 | > 20 |
| COc1cc2c(cc1OC)-c1cc3ccc(OC)c(OC)c3c[n+]1CC2 [PALMITINE] | > 20 | > 20 |
| CCCCCCCCCCCCCCC1(C(=O)O)CO1 (centres undefined) [PALMOXIRATE] | > 20 | > 20 |
| COc1ccc(COc2cc3oc(=O)c4cc(C(C)O)ccc4c3cc2OC)cc1 (centres undefined) [PALOMID-529] | > 20 | > 20 |
| Cc1cc(NC(=O)NCCN2CCC(O)(Cc3ccccc3)CC2)c2ccccc2n1 [PALOSURAN] | > 20 | > 20 |
| Cn1c(=O)c2[nH]c(Br)nc2n(C)c1=O [PAMABROM] | > 20 | > 20 |
| C[C@]12CCCN1CC1=NNC(=O)c3cc(F)cc4[nH]c2c1c34 [PAMIPARIB] | > 20 | > 20 |

| Compound | IC50 [µM] | IC50 (read-out: pIC50 (converted)) [µM] |
| --- | --- | --- |
| CC(=O)O[C@H]1C[C@@H]2CC[C@@H]3[C@H](CC[C@@]4(C)[C@H]3C[C@H]([N+]3(C)CCCCC3)[C@@H]4OC(C)=O)[C@@]2(C)C[C@@H]1[N+]1(C)CCCCC1 [PANCURONIUM] | > 20 | > 20 |
| Cc1[nH]c2ccccc2c1CCNCc1ccc(/C=C/C(=O)NO)cc1 [PANOBINOSTAT] | > 20 | > 20 |
| CC(C)(CO)[C@@H](O)C(=O)NCCC(=O)O [PANTOTHENIC ACID] | > 20 | > 20 |
| COc1ccc(Cc2nccc3cc(OC)c(OC)cc23)cc1OC [PAPAVERINE] | > 20 | > 20 |
| COc1ccc(CC(C)N)cc1 (centres undefined) [PARA-METHOXYAMPHETAMINE] | > 20 | > 20 |
| Oc1ccc(Cl)cc1 [PARACHLOROPHENOL] | > 20 | > 20 |
| CCC1(C)OC(=O)N(C)C1=O (centres undefined) [PARAMETHADIONE] | > 20 | > 20 |
| C[N+]1(C)CCC(OC(=O)C(O)(c2ccccc2)c2ccccc2)CC1 [PARAPENZOLATE] | > 20 | > 20 |
| Cn1c(=O)[nH]c2ncn(C)c2c1=O [PARAXANTHINE] | > 20 | > 20 |
| CCCCc1ccc2[nH]c(NC(=O)OC)nc2c1 [PARBENDAZOLE] | > 20 | > 20 |
| CCC(=O)NS(=O)(=O)c1ccc(-c2c(-c3ccccc3)noc2C)cc1 [PARECOXIB] | > 20 | > 20 |
| C#CCN(C)Cc1ccccc1 [PARGYLINE] | > 20 | > 20 |
| NC[C@@H]1O[C@H](O[C@H]2[C@@H](O)[C@H](O[C@@H]3[C@@H](O)[C@H](N)C[C@H](N)[C@H]3O[C@H]3O[C@H](CO)[C@@H](O)[C@H](O)[C@H]3N)O[C@@H]2CO)[C@H](N)[C@@H](O)[C@@H]1O [PAROMOMYCIN] | > 20 | > 20 |
| CCC(=O)c1ccc(O)cc1 [PAROXYPROPIONE] | > 20 | > 20 |
| Cc1cnc(N2CC3(CCOCC3)C2)c(C(=O)Nc2ccc(C(=O)N3CCc4cc(C(=O)Nc5c(C)cccc5F)sc4-c4ccccc43)cc2)c1 [PC-786] | > 20 | > 20 |
| CCn1cc(C(=O)O)c(=O)c2cc(F)c(N3CCN(C)CC3)cc21 [PEFLOXACIN] | > 20 | > 20 |
| CCOc1cc2ncc(C#N)c(Nc3ccc(F)c(Cl)c3)c2cc1NC(=O)/C=C/CN(C)C [PELITINIB] | > 20 | > 20 |
| Cc1nc(=O)c(C#N)c(NCc2cccnc2)[nH]1 [PELRINONE] | > 20 | > 20 |
| CCC1(CC(=O)O)OCC(Cc2ccccc2)c2c1[nH]c1ccccc21 (centres undefined) [PEMEDOLAC] | > 20 | > 20 |
| CN(C)CCCOC1CC(C)(C)N(C)C(C)(C)C1 [PEMERID] | > 20 | > 20 |
| Nc1nc2[nH]cc(CCc3ccc(C(=O)N[C@@H](CCC(=O)O)C(=O)O)cc3)c2c(=O)[nH]1 [PEMETREXED] | > 20 | > 20 |
| Cc1cccn2c(=O)c(-c3nnn[nH]3)cnc12 [PEMIROLAST] | > 20 | > 20 |
| NC1=NC(=O)C(c2ccccc2)O1 (centres undefined) [PEMOLINE] | > 20 | > 20 |
| CN1C(C)(C)CCCC1(C)C [PEMPIDINE] | > 20 | > 20 |
| Nc1nc(O)c2ncn(CCC(CO)CO)c2n1 [PENCICLOVIR] | > 20 | > 20 |
